Assay [1] deals with ERK. The assay is described as follows: Western blot of ERK activity (pERK) in endothelial cells in 2D culture. The assay is classed as cell-based, human. The conditions noted are these: ECs on TCP (2D culture). The text has this: (§1) (D) Top 10 (TPM>100, top 10 fold change) vasculature (TPM>100, Top 10 fold change) (AmiGO, GO:0001944) and cell cycle genes (AmiGO, GO:0007049) from RNA-seq. Full gene list of vasculature and cell cycle was generated by Amigo. […] Data was normalized to DMSO control (not shown). […] Data was normalized to NT control. ERK2i, siRNA of ERK2. NT, non-targeting.
(§2) We investigated a potential role for ERK signaling on cell cycle gene expression for ECs cultured on TCP surfaces since ERK regulates EC functions that include proliferation, blood vessel morphogenesis, and mechanotransduction^34,35,43-46. […] We further investigated the role for ERK activity in regulating the shift to a proliferative phenotype by comparing the top 10 enriched cycle genes from 2D culture and vascular development genes from 3D culture (Day 3) for ECs on TCP after pERK inhibition (FIGS. 3b-d).

Assay [2] concerns endothelial cells (ECs). The assay is classed as cell-based. The settings on record: ECs on TCP (2D culture).
Excerpt: as §1

Assay [3] deals with vasculature and cell cycle genes. The assay is described as follows: RT-qPCR of vasculature and cell cycle gene expression in ECs on TCP. Type of assay: cell-based, human. The settings on record: normalized to control.
Excerpt: as §1, §2

With `N#CC(=C(/N)Sc1ccccc1N)/C(C#N)=C(\N)Sc1ccccc1N` [U0126], in assay [1], the “ERK activity (Western blot)” value is on record as “decreased ERK activity”. The EC proliferation result in assay [2] was “decreased EC proliferation”. In assay [3], the “cell cycle gene expression (top 10 genes, RT-qPCR)” value was 10 of 10 genes downregulated and the “vasculature (vascular development) gene expression (top 10 genes, RT-qPCR)” value was 8 of 10 genes upregulated.

(Values after patent US11220672B2, “Human pluripotent stem cell-based system for generating endothelial cells” (Wisconsin Alumni Research Foundation, priority 2014, dated 2022).)
